Measured values: ChEMBL document CHEMBL1201862, “PubChem BioAssay data set” (2004)
Activity calls are given as the source filed them.

What was measured:
Cytochrome P450 2C9 = Cytochrome P450 2C9 (Homo sapiens, UniProt P11712)
Cytochrome P450 2C19 = Cytochrome P450 2C19 (Homo sapiens, UniProt P33261); test: Cytochrome panel assay with activity outcomes. Panel member name: p450-cyp2c19 Compounds with AC50 equal or less than 10 uM are considered active; assay type: functional; settings: read-out: AC50
[1] = target: T1, Serine/threonine-protein phosphatase (Candida dubliniensis (strain CD36 / CBS 7987 / NCPF 3949 / NRRLY-17841) (Yeast), UniProt B9W6M3); test: blockers of CaCl2-induced CDRE-lacZ signaling – S. cerevisiae, luminescence, secondary, dose response (AID 2388); assay type: functional, cell-based;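 also: yeast reporter cells carrying a calcineurin-responsive lacZ construct stimulated with calcium chloride; luminescent beta-galactosidase reporter signal in whole cells rather than isolated phosphatase activity; potency for inhibition where a drop in reporter signal means calcineurin blockade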
T1 sequence (B9W6M3 whole entry): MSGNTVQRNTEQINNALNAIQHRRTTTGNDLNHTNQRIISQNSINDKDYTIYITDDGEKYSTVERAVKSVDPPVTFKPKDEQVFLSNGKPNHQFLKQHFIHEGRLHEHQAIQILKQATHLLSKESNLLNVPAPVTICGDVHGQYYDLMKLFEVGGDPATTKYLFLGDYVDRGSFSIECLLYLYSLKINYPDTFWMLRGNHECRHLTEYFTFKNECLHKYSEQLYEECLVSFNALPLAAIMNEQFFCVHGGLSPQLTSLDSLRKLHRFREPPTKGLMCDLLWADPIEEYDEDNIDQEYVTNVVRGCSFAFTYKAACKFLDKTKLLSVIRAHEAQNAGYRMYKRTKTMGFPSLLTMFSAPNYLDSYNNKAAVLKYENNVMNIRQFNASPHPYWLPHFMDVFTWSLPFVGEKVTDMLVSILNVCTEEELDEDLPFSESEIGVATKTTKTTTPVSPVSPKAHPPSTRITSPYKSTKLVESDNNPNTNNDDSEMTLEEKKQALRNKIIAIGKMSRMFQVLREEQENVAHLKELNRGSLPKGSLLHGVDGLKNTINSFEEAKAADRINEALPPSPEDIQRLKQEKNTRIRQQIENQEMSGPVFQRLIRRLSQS

[2] = target: ATP-dependent molecular chaperone HSP82 (Candida albicans (strain WO-1) (Yeast), UniProt C4YTQ8); test: steroid-induced GRE reporter decrease in yeast – S. cerevisiae, luminescence, Hsp90 inhibitor project, dose response (AID 2400); assay type: functional, cell-based;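 also: beta-galactosidase luminescence from glucocorticoid response element reporter as proxy for Hsp90 function; inhibitor potency where signal loss means Hsp90 inhibition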
[3] = fluconazole-exposed Candida albicans growth modulators – fluorescence, retest, confirmation (AID 2467); assay type: functional, cell-based
[4] = NIH-3T3 fibroblast cytotoxicity, dose response, cytotoxicity control, cell-based, fluorescence, Alamar Blue, secondary assay (AID 2327); assay type: functional;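 also: NIH-3T3 mouse fibroblasts cultured with fluconazole at 8 µg/mL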
Cytochrome P450 3A4 = Cytochrome P450 3A4 (Homo sapiens, UniProt P08684);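 also: CYP3A4 tested as one member of a cytochrome P450 panel screen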
BJ [5] = test: cells; assay type: functional, cell-based; settings: Homo sapiens
BJ [6] = test: BJ-TERT fibroblast viability loss – cell-based, RAS-independent, luminescence, dose response (AID 1933); assay type: functional; settings: Homo sapiens
[7] = Luminescence Cell-Based Dose Response HTS to Identify Inhibitors of 5'UTR Stem-Loop Driven Prion Protein mRNA Translation in H4 Neuroglioblastoma Cells. [Related pubchem assays: 1827 (Project Summary), 1813 (Primary HTS)]; assay type: functional
[8] = luciferase reporter signal suppression in cells – H4 neuroglioma cells, luminescence, dose response (AID 1990); assay type: functional, cell-based
[9] = alpha-synuclein stem-loop luciferase translation blockers – H4 neuroglioma cells, luminescence, confirmation (AID 1988); assay type: functional, cell-based
[10] = DRD fibroblast viability loss – cell-based, non-viral oncogenic, luminescence, dose response (AID 1934); assay type: functional; settings: Homo sapiens
BJ [11] = test: BJ-TERT-LT-ST fibroblast viability loss – cell-based, RAS-independent, luminescence, dose response (AID 1935); assay type: functional; settings: Homo sapiens;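 also: BJ fibroblasts immortalized with TERT plus LT and ST oncogenes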
Vero [12] = test: cells; assay type: functional, cell-based; settings: Chlorocebus sabaeus
Vero [13] = test: cells; assay type: functional; settings: Chlorocebus sabaeus
[14] = NIH3T3 cell viability loss – ATP luminescence, mouse fibroblasts, counter-screen, dose response (AID 2010); assay type: functional, cell-based;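 also: cells exposed to compound for about 90 hours before reading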
[15] = Trypanosoma cruzi growth suppression in host cells – NIH3T3 host cells, beta-gal luminescence, confirmation (AID 2044); assay type: functional, cell-based;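 also: intracellular parasites grown in NIH/3T3 mouse fibroblasts as host cells; luminescent beta-galactosidase reporter signal from transgenic T. cruzi replicating inside host cells; inhibitors lower the luminescence signal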
INS1 = test: INS-1E survival protection against cytokine death – cell-based, luminescence, retest, dose response (AID 449756); assay type: functional; settings: Rattus norvegicus;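 also: cell death triggered by IL-1 beta plus TNF-alpha plus IFN-gamma mixture; protective hits raise ATP signal compared with cytokine alone wells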
Escherichia coli = test: microbe, parasite or virus in culture
[16] = test system: Streptococcus sp. 'group A'; test: Streptococcus pyogenes SK(-)GAS viability under kanamycin – luminescence, BacTiterGlo, confirmation, counter-screen for streptokinase expression inhibitor project, dose response (AID 1900); assay type: functional, organism-based
Streptokinase A = target: T2, Streptokinase A (Streptococcus pyogenes serotype M1, UniProt P10520); test: viability-normalized secreted streptokinase activity reduction – plasminogen activation absorbance, OD405, dose response (AID 1914); assay type: functional, Streptococcus pyogenes M1 GAS;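 also: secreted streptokinase activity via plasminogen activation per viability signal from cell pellet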
T2 sequence (P10520 whole entry): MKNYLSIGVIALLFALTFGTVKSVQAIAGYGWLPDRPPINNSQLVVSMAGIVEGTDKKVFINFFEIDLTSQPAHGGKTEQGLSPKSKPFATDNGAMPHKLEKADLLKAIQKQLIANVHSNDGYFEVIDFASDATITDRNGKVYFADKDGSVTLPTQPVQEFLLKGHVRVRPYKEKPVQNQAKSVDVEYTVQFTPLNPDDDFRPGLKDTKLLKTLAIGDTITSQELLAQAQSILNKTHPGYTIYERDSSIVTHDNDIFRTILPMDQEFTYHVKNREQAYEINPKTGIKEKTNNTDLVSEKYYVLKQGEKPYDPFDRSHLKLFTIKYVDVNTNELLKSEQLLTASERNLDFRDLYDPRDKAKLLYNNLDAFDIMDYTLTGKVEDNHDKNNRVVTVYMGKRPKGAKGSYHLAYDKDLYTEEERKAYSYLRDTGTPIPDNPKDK

Streptococcus = test: GAS UMAA2166 growth inhibition – luminescence, BacTiterGlo, counter-screen for streptokinase expression inhibitor project, dose response (AID 1915); assay type: functional, organism-based;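 also: potency for reduction of bacterial viability or growth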

Sequence of Cytochrome P450 2C9 (P11712 whole entry): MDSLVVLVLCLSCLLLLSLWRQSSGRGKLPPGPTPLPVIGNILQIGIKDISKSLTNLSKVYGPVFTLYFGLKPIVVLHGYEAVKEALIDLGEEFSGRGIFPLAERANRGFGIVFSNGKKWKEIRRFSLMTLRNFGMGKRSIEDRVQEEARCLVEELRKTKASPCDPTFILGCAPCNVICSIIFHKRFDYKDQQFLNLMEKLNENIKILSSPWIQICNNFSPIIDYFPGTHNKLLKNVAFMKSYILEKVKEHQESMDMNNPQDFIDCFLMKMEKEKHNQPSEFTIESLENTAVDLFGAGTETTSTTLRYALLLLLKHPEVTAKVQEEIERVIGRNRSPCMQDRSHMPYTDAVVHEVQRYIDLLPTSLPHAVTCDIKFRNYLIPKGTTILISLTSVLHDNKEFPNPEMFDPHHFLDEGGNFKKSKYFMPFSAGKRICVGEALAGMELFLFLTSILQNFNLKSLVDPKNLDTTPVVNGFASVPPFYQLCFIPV
Sequence of Cytochrome P450 3A4 (P08684 whole entry): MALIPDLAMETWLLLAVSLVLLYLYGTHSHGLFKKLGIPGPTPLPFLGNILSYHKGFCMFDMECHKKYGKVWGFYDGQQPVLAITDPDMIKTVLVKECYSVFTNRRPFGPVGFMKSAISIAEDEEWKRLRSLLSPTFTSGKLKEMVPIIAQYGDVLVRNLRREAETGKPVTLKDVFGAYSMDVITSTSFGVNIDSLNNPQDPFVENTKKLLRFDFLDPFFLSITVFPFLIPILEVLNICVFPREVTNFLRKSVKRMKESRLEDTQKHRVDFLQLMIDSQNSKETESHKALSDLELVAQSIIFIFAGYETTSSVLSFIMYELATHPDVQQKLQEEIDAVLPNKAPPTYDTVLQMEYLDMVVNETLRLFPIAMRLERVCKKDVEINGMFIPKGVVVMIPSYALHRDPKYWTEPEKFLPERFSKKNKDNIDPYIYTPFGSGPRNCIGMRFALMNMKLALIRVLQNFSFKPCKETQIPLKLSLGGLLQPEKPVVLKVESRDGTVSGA
Sequence of ATP-dependent molecular chaperone HSP82 (C4YTQ8 whole entry): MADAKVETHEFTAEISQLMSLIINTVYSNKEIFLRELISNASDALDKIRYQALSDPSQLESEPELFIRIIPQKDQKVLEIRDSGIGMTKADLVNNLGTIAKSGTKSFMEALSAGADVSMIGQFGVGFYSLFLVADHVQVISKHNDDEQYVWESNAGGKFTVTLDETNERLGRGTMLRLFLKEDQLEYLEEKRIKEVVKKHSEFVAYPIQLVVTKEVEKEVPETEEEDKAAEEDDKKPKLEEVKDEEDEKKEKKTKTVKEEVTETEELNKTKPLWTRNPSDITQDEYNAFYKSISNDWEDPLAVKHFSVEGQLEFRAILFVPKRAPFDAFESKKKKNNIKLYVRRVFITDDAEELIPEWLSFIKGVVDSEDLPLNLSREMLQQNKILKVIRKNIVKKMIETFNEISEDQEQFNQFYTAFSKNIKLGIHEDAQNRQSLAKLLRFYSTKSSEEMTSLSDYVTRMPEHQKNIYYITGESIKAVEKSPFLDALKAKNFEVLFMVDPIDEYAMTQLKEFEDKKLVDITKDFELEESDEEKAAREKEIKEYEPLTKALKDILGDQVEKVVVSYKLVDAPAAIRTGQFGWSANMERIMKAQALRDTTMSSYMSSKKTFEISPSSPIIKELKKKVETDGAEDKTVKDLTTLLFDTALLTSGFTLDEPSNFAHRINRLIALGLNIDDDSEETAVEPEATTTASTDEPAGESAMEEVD
Sequence of Cytochrome P450 2C19 (P33261 whole entry): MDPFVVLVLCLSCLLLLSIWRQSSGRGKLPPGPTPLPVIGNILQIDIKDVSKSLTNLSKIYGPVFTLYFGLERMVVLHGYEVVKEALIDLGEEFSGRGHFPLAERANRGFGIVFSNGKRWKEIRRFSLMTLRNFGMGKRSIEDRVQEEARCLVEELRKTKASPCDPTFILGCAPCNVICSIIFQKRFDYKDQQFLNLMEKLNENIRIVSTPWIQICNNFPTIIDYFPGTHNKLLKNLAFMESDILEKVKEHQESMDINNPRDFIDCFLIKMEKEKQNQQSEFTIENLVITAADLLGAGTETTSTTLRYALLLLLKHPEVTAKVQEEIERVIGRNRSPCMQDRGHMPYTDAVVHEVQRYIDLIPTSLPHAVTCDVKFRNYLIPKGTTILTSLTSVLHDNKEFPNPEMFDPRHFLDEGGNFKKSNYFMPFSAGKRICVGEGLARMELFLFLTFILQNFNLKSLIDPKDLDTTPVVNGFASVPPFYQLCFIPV

Q: Which results are given for `C=CCc1cccc2cc(C(=O)N(CC)CC)c(=O)oc12`?
A: AC50 (Cytochrome P450 2C9): inconclusive; AC50 (Cytochrome P450 2C19): 28.2 µM (inconclusive)

Q: What does the source list for `C=CCn1c(N)nc2ccccc21`?
A: EC50 [1]: > 180 µM (inactive); EC50 [2]: > 160 µM (inactive); EC50 [3]: 1.55 µM (active); EC50 [4]: > 160 µM (inactive)

Q: Which AC50 (Cytochrome P450 3A4) does the source give for `O=C(O)C1CCC(=O)N(C2CC2)C1c1ccccc1` (stereo not drawn) here?
A: inconclusive

Q: For `CN1CCN(c2ccc([N+](=O)[O-])cc2C(=O)c2ccc(Br)cc2)CC1`, which EC50 (BJ [5]) is on record?
A: 28.9 µM (active)

Q: What about the EC50 (BJ [6]) of the same compound?
A: 4.96 µM (active)

Q: And the EC50 [7]?
A: 12.6 µM (active)

Q: And the EC50 [8]?
A: 11.6 µM (active)

Q: What about the EC50 [9] of the same compound?
A: 4.21 µM (active)

Q: What about the EC50 [10] of the same compound?
A: 4.11 µM (active)

Q: And the EC50 (BJ [11])?
A: 5.07 µM (inconclusive)

Q: For `O=S(=O)(c1ccc(Cl)cc1)N1CCN(C(=S)Nc2ccc(F)c(Cl)c2)CC1`, which IC50 (Vero [12]) is on record?
A: > 25 µM (active)

Q: What about the CC50 (Vero [13]) of the same compound?
A: > 25 µM (active)

Q: For `CCCCc1ccc(NC(=N)Nc2nc(C)cc(C)n2)cc1`, which EC50 [14] is on record?
A: 9.01 µM (active)

Q: What about the EC50 [15] of the same compound?
A: 1.71 µM (active)

Q: And the AC50 (INS1)?
A: 4.27 µM (active)

Q: What about the CC50 (Vero [13]) of the same compound?
A: 7.63 µM (active)

Q: With `CN(C)c1ncc2nc(-c3ccc(F)cc3)c(=O)n(Cc3ccc(F)cc3)c2n1` as the compound, how does the AC50 (Cytochrome P450 2C9) read?
A: inconclusive

Q: What about the AC50 (Cytochrome P450 3A4) of the same compound?
A: inconclusive

Q: With `O=C1CN(S(=O)(=O)c2ccccc2C(F)(F)F)CCN1` as the compound, how does the AC50 (Escherichia coli) read?
A: 28.5 µM (active)

Q: Which results are given for `CCCNc1nc(NCC)nc(OC)n1`?
A: AC50 (Cytochrome P450 2C9): inconclusive; AC50 (Cytochrome P450 2C19): 17.8 µM (inconclusive)

Q: Which CC50 (Vero [13]) does the source give for `O=C(c1ccc([N+](=O)[O-])o1)N1CCc2ccccc21` here?
A: > 25 µM (active)

Q: For `COc1cccc(NC(=O)c2cccc(C(=O)Nc3cccc(OC)c3)n2)c1`, which AC50 (Escherichia coli) is on record?
A: 32.4 µM (active)

Q: Which AC50 (Escherichia coli) does the source give for `CC(=O)NC1=NN(C(C)=O)C2(S1)C(=O)N(C(C)C)c1ccc(C)cc12` (stereo not drawn) here?
A: > 150 µM (inactive)

Q: For `CCC(=O)NC(c1ccc(C)cc1)c1cc([N+](=O)[O-])c2cccnc2c1O` (stereo not drawn), which EC50 [16] is on record?
A: 1.17 µM (active)

Q: What about the EC50 [14] of the same compound?
A: 6.02 µM (active)

Q: What about the EC50 [1] of the same compound?
A: > 180 µM (inactive)

Q: What about the EC50 (Streptokinase A) of the same compound?
A: 56.5 µM (active)

Q: What about the EC50 [2] of the same compound?
A: > 150 µM (inactive)

Q: What about the EC50 [3] of the same compound?
A: 0.212 µM (active)

Q: What about the EC50 [4] of the same compound?
A: 21.8 µM (active)

Q: And the EC50 [15]?
A: 1.34 µM (active)

Q: What about the AC50 (INS1) of the same compound?
A: 5.53 µM (active)

Q: And the EC50 (Streptococcus)?
A: 12.7 µM (active)
